Measured values from article PMC4266648, “Metabolism of Skin-Absorbed Resveratrol into Its Glucuronized Form in Mouse Skin” (PLoS ONE, 2014).
Entries after “also recorded” stand apart in the source; their conditions may differ.

Columns and labels:
[1] = system: HaCaT (human keratinocytes); test: RESV metabolism in cell culture (LC-MS), HaCaT; settings: 20 or 200 µM RESV, 4 h
Protocol: (§1) Cells were maintained in Dulbecco’s Modified Eagle Medium (DMEM) with 1% penicillin/streptomycin and 2 mM L-glutamine with some modifications as follows; DMEM (1.0 g/L glucose) with 10% fetal calf serum (FCS) for HepG2; DMEM (4.5 g/L glucose) with 10% FCS for HaCaT; DMEM (4.5 g/L glucose) with 20% FCS for C2C12. C2C12 cells were differentiated into myotubes by switching medium into DMEM containing 2% horse serum. Cells were plated on a 10 cm dish and allowed to adhere for 18 h. […] After 4 h incubation, cells were washed with PBS twice, followed by addition of 2 mL 50% ice-cold methanol. Collected cells were transferred into tubes on ice and further processed as described in metabolome sample preparation section.
(§2) After addition of internal standards (10 nmol HEPES and PIPES) to metabolome samples and brief vortexing, samples were transferred to Amicon Ultra 10 kDa cut-off filters (Millipore, Billerica, MA, USA) to remove proteins. […]
(§3) LC-MS data were obtained using a Paradigm MS4 HPLC system (Michrom Bioresources, Auburn, CA, USA) coupled to an LTQ Orbitrap mass spectrometer (Thermo Fisher Scientific, Waltham, MA, USA), as described previously [38]. […] Peak areas of metabolites of interest were measured using the MZmine 2.10 software [39] and normalized using the peak areas of HEPES and PIPES, as described in S2 Table.

[2] = system: HepG2 (human hepatoblastoma cells); test: RESV metabolism in cell culture (LC-MS), HepG2; settings: HepG2, 20 or 200 µM RESV, 4 h
Protocol: as §1, §2, §3

C2C12 (mouse myoblasts) = test: RESV metabolism in cell culture (LC-MS), C2C12; settings: C2C12, 20 or 200 µM RESV, 4 h
Protocol: as §1, §2, §3

[3] = Distribution of RESV metabolites in mouse tissues after oral and dermal administration (LC-MS); assay type: in vivo, mouse; settings: for Tissue distribution of metabolite: hairless mice, 4 h after 1 mg RESV, both oral and skin administration
Protocol: Mice were separated from each other and could not lick RESV from their dorsal skin.
Mice were anesthetized with pentobarbital and blood was collected from the right ventricle. For metabolite extraction 0.2 mL of blood were mixed with 1.8 mL 55% methanol, pre-chilled to −40°C and kept until further processing as described in the metabolome sample preparation section. In addition to blood, metabolome samples were prepared from liver, dorsal skin, leg skin, and hind limb muscle.
Around 100 mg of each mouse tissue was dissected and weighed. Tissues were minced and homogenized for 3 min in 500 µL 50% methanol on ice using a BioMasher II (Nippi, Tokyo, Japan). Next, 1 mL 50% methanol and internal standards (10 nmol 4-(2-hydroxyethyl)-1-piperazineethanesulfonic acid (HEPES) and piperazine-N,N’-bis(2-ethanesulfonic acid) (PIPES)) were added to the samples. HEPES and PIPES were used as internal standards to correct for the variation of sample preparation and different detection efficiency. After brief vortexing, samples were centrifuged at 500 g for 10 min at 4°C. Supernatant was recovered for further processing as described in the metabolome sample preparation section (without the repeated addition of internal standards and vortexing).
Metabolome sample preparation was previously described.
Peaks were assigned to metabolites based upon their retention times and m/z values. Compounds were confirmed with standards (STD) or with analysis of MS/MS spectra (MS/MS), if no standard was available. In cases where no standard compound or MS/MS spectrum was available, compounds were identified by generating chemical formulae using m/z values in MZmine 2.10 module and given MS status. Data were analyzed using the scatter plot function built into MZmine 2.10 software, as well as by exporting the data to a spreadsheet.

TPA-induced ear edema = test: TPA-induced ear edema; assay type: in vivo, mouse; settings: for Ear thickness: 24 h after 1 µg TPA, before TPA 0.22 mm, TPA control 0.30 mm, female C57BL/6 mice
Protocol: The ear edema model was employed as previously described. Briefly, 1 µg 12-O-Tetradecanoylphorbol-13-acetate (TPA) was applied to the right ear of female C57BL/6 mice. Edema was evaluated by measuring ear thickness and ear weight. […] Ear thickness was measured with a micrometer before and 24 h after TPA treatment. After sacrificing mice with CO2, ear punch biopsies (6 mm diameter) were weighed.

[4] = RESV-treated mouse samples, LC-MS negative ionization mode

Compound: O=C(O)[C@H]1O[C@@H](Oc2cc(O)cc(/C=C\c3ccc(O)cc3)c2)[C@H](O)[C@@H](O)[C@@H]1O (relative stereo) [cis-RESV-3-O-GLUC, cis-Resveratrol-3-O-glucuronide]
- Detection of metabolite (normalized peak area) in cells treated with RESV [1]: detected
- Detection of metabolite (normalized peak area) in cells treated with RESV [2]: detected
- Detection of metabolite (normalized peak area) in cells treated with RESV (C2C12 (mouse myoblasts)): detected

Compound: O=C(O)[C@H]1O[C@@H](Oc2ccc(/C=C\c3cc(O)cc(O)c3)cc2)[C@H](O)[C@@H](O)[C@@H]1O (relative stereo) [cis-RESV-4-O-glucuronide, cis-resveratrol-4-O-glucuronide]
- Detection of metabolite in mouse and cell culture samples ([3]; mouse, in vivo): barely detected

Compound: O=C(O)[C@H]1O[C@@H](Oc2cc(O)cc(/C=C/c3ccc(O)cc3)c2)[C@H](O)[C@@H](O)[C@@H]1O (relative stereo) [trans-RESV-3-O-GLUC, trans-resveratrol-3-O-glucuronide]
- Detection of metabolite (normalized peak area) in cells treated with RESV [1]: detected
- Detection of metabolite (normalized peak area) in cells treated with RESV [2]: detected
- Detection of metabolite (normalized peak area) in cells treated with RESV (C2C12 (mouse myoblasts)): detected

Compound: O=C(O)[C@H]1O[C@@H](Oc2ccc(/C=C/c3cc(O)cc(O)c3)cc2)[C@H](O)[C@@H](O)[C@@H]1O (relative stereo) [trans-RESV-4-O-glucuronide, trans-resveratrol-4-O-glucuronide]
- Detection of metabolite in mouse and cell culture samples ([3]; mouse, in vivo): barely detected

Compound: Oc1ccc(/C=C/c2cc(O)cc(O)c2)cc1 [RESV, trans-resveratrol]
- Ear weight (TPA-induced ear edema; 6 mm ear punch 24 h after TPA, 1 mg RESV oral, TPA-treated mice 9.4 mg): 8.1 mg
- Ear thickness (TPA-induced ear edema; 1 mg RESV applied topically to ear 30 min after TPA): 0.21 mm
- Ear thickness (TPA-induced ear edema; 1 mg RESV orally 30 min after TPA): 0.26 mm

Compound: Dihydroresveratrol- glucuronide [DH-RESV-GLUC]
- Tissue distribution of metabolite [3]: detected in blood and liver as well as at lower levels in skin and muscle

Compound: Dihydroresveratrol- sulfoglucuronide [DH-RESV-SULF-GLUC]
- Reports and comments: samples in which the metabolite was detected [3, 4]: Detected in mouse liver samples

Compound: Dihydroresveratrol-sulfate [DH-RESV-SULF]
- Tissue distribution of metabolite [3]: detected mainly in liver and blood; also recorded: barely detectable in dorsal and leg skin, and muscle

Compound: Resveratrol-diglucuronide [RESV-DIGLUC]
- Reports and comments: samples in which the metabolite was detected ([3]; mouse, in vivo): Detected in mouse skin samples

Compound: Resveratrol-disulfate [RESV-DISULF]
- Reports and comments: samples in which the metabolite was detected [3, 4]: Detected in mouse blood and liver samples

Compound: Resveratrol-sulfoglucuronide [RESV-SULF-GLUC]
- Reports and comments: samples in which the metabolite was detected ([3]; mouse, in vivo): Azorin-Ortuno et al 2011 [4] (MS/MS data) Detected in blood mouse blood samples
